Reference: paper PMC5999115, “Anti-tumor activity of phenoxybenzamine and its inhibition of histone deacetylases” (PLoS ONE, 2018)

Assays:
HDAC9 = target: T1, HDAC9 (Homo sapiens, UniProt Q9UKV0); assay: Fluorogenic HDAC deacetylase assay (BPS Bioscience); type: biochemical
T1 construct: purchased BPS Bioscience 50009

HDAC10 = target: T2, HDAC10 (Homo sapiens, UniProt Q969S8); assay: as above; type: biochemical; settings: read-out: % inhibition @ 10 uM
T2 construct: purchased BPS Bioscience 50060

[1] = test system: pulmonary arterial hypertension in a rat model; set-up: method as in earlier work; settings: daily injections following monocrotaline; after 4 weeks of treatment; cited from earlier work
CFA-affected animals = test system: CFA-affected animals; set-up: method as in PMID 20846436; settings: cited from earlier work
HDAC5 = target: T3, HDAC5 (Homo sapiens, UniProt Q9UQL6); assay: Fluorogenic HDAC deacetylase assay (BPS Bioscience); type: biochemical
T3 construct: purchased BPS Bioscience 50005

HDAC6 = target: T4, HDAC6 (Homo sapiens, UniProt Q9UBN7); assay: as above; type: biochemical
T4 construct: purchased BPS Bioscience 50006

PC-3 = assay: NCI60 screen, Sulforhodamine B assay; type: cell-based, human; settings: 10 μM phenoxybenzamine
Experimental: (§1) The results of these studies were included in an application for the screening of PBZ in the National Cancer Institute NCI60 screening program (https://dtp.cancer.gov/discovery_development/nci-60); they measured its effects on growth in cultures of 60 human tumors. This initial screen was conducted at only one drug concentration, 10 μM. We supplied the United States Pharmacopeial reference standard of PBZ-hydrochloride in powder form. The NCI60 standard procedure for dissolution of a synthetic molecule like PBZ involved initial dilution in 9:1 dimethyl sulfoxide (DMSO): glycerol at a concentration of 4 mM; the solution was then diluted 1:200 with complete culture medium (RPMI 1640 medium containing 5% fetal calf serum (FCS), 2 mM L-glutamine and 50 μg/ml gentamicin to give a final concentration of 20 μM; 100 μl of the drug-medium mixture was added to 100 μl of the cell cultures already in complete medium. The microtiter plates were incubated for 48 hr at 37°C, 5% CO2, 95% air, and 100% relative humidity (see S1 Appendix for further details).
(§2) The reason for the lack of activity after dissolution in DMSO has not been pursued further, but DMSO was eliminated in all subsequent assay systems.

NCI-H522 = assay: NCI60 screen, Sulforhodamine B assay; type: cell-based, human; settings: 10 μM phenoxybenzamine
Experimental: as §1, §2

UACC-257 = assay: NCI60 screen, Sulforhodamine B assay; type: cell-based, human; settings: 10 μM phenoxybenzamine
Experimental: as §1, §2

OVCAR-8 = assay: NCI60 screen, Sulforhodamine B assay; type: cell-based, human; settings: 10 μM phenoxybenzamine
Experimental: as §1, §2

T4 sequence (Q9UBN7 whole entry): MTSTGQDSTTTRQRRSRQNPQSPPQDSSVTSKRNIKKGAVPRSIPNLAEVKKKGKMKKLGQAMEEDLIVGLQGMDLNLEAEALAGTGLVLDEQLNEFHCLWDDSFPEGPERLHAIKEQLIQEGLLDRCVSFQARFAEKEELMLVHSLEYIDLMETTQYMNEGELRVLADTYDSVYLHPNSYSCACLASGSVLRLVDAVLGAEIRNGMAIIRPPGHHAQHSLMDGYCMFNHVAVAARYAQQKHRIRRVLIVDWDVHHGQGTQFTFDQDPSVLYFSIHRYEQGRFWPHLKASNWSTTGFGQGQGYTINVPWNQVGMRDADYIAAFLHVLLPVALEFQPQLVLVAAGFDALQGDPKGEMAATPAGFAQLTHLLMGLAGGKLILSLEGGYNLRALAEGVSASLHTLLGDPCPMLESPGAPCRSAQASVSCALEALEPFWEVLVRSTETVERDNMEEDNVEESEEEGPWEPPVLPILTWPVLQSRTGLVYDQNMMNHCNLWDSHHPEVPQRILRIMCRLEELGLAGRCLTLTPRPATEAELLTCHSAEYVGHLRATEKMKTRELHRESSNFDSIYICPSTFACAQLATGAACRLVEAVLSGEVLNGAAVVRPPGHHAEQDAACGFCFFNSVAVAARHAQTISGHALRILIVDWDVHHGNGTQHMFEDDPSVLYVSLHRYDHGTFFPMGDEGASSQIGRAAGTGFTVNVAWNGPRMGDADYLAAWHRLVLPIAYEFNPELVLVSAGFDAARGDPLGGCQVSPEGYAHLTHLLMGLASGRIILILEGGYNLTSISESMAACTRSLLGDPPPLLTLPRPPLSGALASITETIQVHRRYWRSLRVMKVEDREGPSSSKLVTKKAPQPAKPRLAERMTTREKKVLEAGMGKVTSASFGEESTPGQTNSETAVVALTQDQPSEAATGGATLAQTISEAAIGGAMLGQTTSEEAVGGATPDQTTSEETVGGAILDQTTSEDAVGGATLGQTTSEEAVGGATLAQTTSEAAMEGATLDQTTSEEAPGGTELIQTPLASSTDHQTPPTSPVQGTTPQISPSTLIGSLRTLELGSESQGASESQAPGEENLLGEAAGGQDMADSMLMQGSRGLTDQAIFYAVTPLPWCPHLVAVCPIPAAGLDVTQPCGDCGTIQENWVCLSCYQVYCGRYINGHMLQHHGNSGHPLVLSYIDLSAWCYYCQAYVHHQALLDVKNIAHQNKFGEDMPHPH
T3 sequence (Q9UQL6 656-1122 limits assumed): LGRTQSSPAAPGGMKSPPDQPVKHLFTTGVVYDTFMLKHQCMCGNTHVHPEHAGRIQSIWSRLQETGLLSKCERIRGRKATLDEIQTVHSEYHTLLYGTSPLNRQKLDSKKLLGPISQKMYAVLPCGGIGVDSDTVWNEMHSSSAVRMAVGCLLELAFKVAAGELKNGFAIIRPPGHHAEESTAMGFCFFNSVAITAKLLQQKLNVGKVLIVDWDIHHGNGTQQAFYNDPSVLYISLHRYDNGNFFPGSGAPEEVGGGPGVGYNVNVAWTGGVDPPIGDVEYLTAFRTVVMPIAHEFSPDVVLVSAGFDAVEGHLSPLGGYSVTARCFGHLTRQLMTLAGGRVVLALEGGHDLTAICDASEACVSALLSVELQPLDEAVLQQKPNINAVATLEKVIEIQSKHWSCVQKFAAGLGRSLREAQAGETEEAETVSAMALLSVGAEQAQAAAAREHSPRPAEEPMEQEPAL
T1 sequence (Q9UKV0 1-1066 isoform Q9UKV0-5): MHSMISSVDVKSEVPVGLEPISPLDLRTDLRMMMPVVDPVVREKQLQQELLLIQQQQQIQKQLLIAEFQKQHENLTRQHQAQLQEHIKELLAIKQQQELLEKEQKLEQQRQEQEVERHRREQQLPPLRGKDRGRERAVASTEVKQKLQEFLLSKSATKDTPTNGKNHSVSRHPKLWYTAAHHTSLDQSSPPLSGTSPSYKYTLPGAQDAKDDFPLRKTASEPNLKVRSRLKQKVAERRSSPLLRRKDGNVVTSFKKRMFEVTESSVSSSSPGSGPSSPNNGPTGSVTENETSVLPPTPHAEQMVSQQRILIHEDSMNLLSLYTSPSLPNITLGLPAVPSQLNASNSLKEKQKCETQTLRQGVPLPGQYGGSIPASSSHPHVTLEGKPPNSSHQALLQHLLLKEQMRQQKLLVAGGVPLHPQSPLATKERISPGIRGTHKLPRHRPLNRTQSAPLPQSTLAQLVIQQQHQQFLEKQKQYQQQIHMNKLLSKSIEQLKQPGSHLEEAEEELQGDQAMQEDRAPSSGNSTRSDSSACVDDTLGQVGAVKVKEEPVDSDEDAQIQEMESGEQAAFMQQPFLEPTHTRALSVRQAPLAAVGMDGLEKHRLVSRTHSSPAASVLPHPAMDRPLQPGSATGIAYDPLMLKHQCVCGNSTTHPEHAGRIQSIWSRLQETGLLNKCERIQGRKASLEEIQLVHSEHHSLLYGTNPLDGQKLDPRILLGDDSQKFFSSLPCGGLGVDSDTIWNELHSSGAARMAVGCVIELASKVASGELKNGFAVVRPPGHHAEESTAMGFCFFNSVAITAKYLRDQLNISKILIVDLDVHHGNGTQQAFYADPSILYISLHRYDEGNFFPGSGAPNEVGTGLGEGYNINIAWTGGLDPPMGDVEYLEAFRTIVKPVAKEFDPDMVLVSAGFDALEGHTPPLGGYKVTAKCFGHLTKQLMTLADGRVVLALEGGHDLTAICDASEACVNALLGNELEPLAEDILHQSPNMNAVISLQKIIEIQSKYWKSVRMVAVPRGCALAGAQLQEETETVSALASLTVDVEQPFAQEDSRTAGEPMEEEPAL
T2 sequence (Q969S8 whole entry): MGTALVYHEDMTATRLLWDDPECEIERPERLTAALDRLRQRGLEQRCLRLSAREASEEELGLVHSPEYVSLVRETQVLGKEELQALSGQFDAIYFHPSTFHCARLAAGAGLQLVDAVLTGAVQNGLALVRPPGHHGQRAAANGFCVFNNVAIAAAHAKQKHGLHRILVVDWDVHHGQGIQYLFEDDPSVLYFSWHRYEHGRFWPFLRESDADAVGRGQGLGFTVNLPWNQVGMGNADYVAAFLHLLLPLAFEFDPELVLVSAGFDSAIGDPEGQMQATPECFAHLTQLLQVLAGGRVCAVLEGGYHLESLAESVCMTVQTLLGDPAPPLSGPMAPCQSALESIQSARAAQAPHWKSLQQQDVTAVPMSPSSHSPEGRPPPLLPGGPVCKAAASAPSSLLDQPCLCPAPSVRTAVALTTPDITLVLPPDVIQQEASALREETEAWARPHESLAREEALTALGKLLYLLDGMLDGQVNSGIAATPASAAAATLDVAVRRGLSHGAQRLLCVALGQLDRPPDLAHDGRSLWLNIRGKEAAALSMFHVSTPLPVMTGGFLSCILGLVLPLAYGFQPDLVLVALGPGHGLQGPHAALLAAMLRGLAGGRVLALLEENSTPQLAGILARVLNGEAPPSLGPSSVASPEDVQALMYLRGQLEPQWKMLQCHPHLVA

CC(COc1ccccc1)N(CCCl)Cc1ccccc1 (centres unmarked) [PBZ, phenoxybenzamine]
IC50 (HDAC9): 5.3 µM
inhibition at 10 µM (HDAC10): 0%
decrease in right-ventricular hypertrophy [1]: 69%
inhibition in the increase in medial thickening of pulmonary arteries [1]: 80%
reversing the heightened pain sensitivity of the CFA-affected animals (CFA-affected animals): equipotent with the nonsteroidal anti-inflammatory drug, naproxen
IC50 (HDAC5): 9.8 µM
IC50 (HDAC6): 0.59 µM
Percent cell growth in NCI60 screen with 5% FCS (48 hr incubation) (PC-3): 63%
Percent cell growth in NCI60 screen with 5% FCS (48 hr incubation) (NCI-H522): 73%
Percent cell growth in NCI60 screen with 5% FCS (48 hr incubation) (UACC-257): 76%
Percent cell growth in NCI60 screen with 5% FCS (48 hr incubation) (OVCAR-8): 53%
